Test results published in patent publication US20240002846A1, “COMPOSITIONS AND METHODS FOR THE DIAGNOSIS AND TREATMENT OF ITCH” (Duke University, priority 2020, published 2024).

Legend:
mouse keratinocytes = assay: Ca2+ imaging in cultured mouse keratinocytes; type: cell-based; settings: inhibitor 10 μM
Protocol: Basal keratinocytes were separated from the cornified sheets by filtration through a […] cell strainer. Keratinocytes were plated on collagen I-coated dishes or glass coverslips and grown in EME media (Gibco, Gaithersburg, MD) containing 8% chelex (Bio-rad, Hercules, CA)-treated FBS with the final Ca^2+ adjusted to 0.05 mM, bovine pituitary extract (50 μg/mL), epidermal growth factor (5 ng/mL), and lx antibiotics/antimycotics (Gibco, Gaithersburg, MD) in a humidified incubator with 5% CO2 at 37° C. for 5-7 days until use. To knockdown Trpv4 in isolated keratinocytes from newborn keratinocyte-Trpv4 cKO mice, cells were treated with 4-OH tamoxifen at 500 nM for 72 h.
In vitro and ex vivo Ca^2+ imaging. […] Ca^2+ imaging of cultured cells in response to chemicals was conducted after loading with 5 μM Fura2-AM (Invitrogen, Waltham, MA) for 45 min after a ratiometric Ca^2+-imaging protocol with 340/380-nm blue light for dual excitation. Ratios of emissions were acquired at 0.5 Hz. ΔR/R0 was determined as the fraction of the increase of a given ratio over baseline ratio divided by baseline ratio. […] Control cells received vehicles.

hTRPV4-R746C = target: T1, hTRPV4-R746C (Homo sapiens, UniProt Q9HBA0, R746C); assay: Inside-out patch-clamp, hTRPV4-R746C; type: biochemical; settings: 5 μM LPC 18:1
T1 construct: expressed in transfected cells; host or cells: HEK293
T1 sequence (Q9HBA0 whole entry R746C): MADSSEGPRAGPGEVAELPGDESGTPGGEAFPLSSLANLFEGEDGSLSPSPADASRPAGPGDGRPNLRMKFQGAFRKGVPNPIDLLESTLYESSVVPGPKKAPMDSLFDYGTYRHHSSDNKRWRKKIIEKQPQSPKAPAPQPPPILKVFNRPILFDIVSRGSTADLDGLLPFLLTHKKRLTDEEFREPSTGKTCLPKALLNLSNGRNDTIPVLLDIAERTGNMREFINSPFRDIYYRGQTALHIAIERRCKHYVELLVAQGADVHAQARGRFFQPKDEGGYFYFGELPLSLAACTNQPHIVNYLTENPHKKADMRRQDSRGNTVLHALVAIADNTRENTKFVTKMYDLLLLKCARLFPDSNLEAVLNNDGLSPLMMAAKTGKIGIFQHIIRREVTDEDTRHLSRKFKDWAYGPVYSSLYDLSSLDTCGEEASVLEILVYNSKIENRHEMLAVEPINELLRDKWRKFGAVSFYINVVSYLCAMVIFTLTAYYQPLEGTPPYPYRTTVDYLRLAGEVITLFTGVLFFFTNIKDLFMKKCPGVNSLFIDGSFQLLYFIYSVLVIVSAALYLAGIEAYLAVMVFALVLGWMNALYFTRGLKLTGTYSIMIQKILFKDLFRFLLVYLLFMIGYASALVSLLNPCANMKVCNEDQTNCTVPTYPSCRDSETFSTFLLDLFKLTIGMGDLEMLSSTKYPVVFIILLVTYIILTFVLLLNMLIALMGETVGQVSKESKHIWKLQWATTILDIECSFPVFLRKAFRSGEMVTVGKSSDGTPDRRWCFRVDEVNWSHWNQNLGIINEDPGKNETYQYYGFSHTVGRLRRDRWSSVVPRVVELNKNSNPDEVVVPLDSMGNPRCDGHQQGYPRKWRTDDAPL
Protocol: Cell culture and transfection. HEK293 cells (ATCC® CRL-1573) were cultured on poly-D-lysine coated coverslips in 24-well plate containing DMEM media with high-Glucose (Gibco, Gaithersburg, MD) supplemented with 10% fetal bovine serum (FBS, HyClone Laboratories, Logan, UT) and 100 U/mL of penicillin/streptomycin (Gibco, Gaithersburg, MD). Cell cultures were maintained with 5% of CO2 in a humidified incubator at 37° C. HEK cells were transfected with rat or human wild type or mutant TRPV4 channels with EGFP or YFP coupled to their C-termini (1.5 μg of plasmid for excised patch clamp and Ca^2+ imaging and 200 ng for single-channel experiments). […]
Electrophysiology. Currents were recorded using the inside-out configuration of the patch-clamp technique (Hamill et al. Pflugers Arch. 1981, 391, 85-100). […] Mean current values in response to GSK1016790A or LPC 18:1 were measured after channel activation had reached the steady-state (˜3 min). […] Currents were low-pass filtered at 2 kHz and sampled at 10 kHz with an EPC 10 amplifier (HEKA Elektronik) and were plotted and analyzed with Igor Pro (Wavemetrics Inc.).

rTRPV4-R746D = rTRPV4-R746D (Rattus norvegicus, UniProt Q9ERZ8, R746D); assay: In vitro interaction (overlay) assay LPC-TRPV4-R746D; type: binding; design: made in house; host or cells: HEK293 cells, surface protein fraction; settings: 200 pmol per spot
Chain of rTRPV4-R746D (Q9ERZ8 whole entry R746D): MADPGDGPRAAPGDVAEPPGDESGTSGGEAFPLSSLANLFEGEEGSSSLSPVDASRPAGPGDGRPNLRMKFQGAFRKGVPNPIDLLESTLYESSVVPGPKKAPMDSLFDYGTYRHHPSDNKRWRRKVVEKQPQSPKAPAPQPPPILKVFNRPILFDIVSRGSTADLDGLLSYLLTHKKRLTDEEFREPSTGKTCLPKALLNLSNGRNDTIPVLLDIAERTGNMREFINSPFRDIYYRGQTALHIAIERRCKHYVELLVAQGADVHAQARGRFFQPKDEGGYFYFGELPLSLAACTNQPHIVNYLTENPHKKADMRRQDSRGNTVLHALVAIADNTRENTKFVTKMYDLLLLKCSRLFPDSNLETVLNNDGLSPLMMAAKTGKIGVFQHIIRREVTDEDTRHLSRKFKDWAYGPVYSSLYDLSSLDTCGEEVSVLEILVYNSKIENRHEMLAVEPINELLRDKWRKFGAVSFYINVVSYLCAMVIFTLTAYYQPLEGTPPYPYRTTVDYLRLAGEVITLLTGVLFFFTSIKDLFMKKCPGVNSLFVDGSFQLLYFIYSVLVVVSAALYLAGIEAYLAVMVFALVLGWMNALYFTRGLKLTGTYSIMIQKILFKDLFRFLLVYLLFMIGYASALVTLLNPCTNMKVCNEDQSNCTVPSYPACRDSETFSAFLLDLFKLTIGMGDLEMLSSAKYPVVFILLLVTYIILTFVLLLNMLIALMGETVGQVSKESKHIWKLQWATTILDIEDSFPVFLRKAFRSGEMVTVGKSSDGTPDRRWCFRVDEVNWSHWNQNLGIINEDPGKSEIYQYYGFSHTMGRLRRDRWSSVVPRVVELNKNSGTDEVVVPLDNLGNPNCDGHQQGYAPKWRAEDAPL
Protocol: (§1) In vitro interaction assays of LPC-TRPV4. Surface proteins were obtained from HEK293 cells transiently expressing rTRPV4-EGFP channels using the Pierce Cell Surface Isolation kit (Pierce Biotechnology, Rockford, IL) following the manufacturer's instructions. Overlay assays were performed as previously described (Morales-Lazaro et al. Nat. Commun. 2016, 7, 13092). In brief, LPC 18:1 was spotted (200 pmol per spot) onto a nitrocellulose membrane (GE Healthcare, Pittsburgh, PA) and then blocked with 1% fatty acid-free BSA (Calbiochem) and 6% fat-free dried milk in PBS. Membranes were then incubated with the surface protein solutions and exposed to anti-GFP antibody (Sigma, St. Louis, MO) diluted 1:1000 in 3% fat-free dried milk in PBST (with 0.1% of Tween). Membranes were incubated with horseradish peroxidase-conjugated secondary anti-rabbit antibody (Cell Signaling Technology) diluted 1:7500 in 6% fat-free dried milk in PBST. The binding of rTRPV4-EGFP and TRPV4-R746D-EGFP to the lipid-containing spots was visualized by chemiluminescence by exposing the blot for 15 min (Amersham Bioscience, Piscataway, NJ). Semi-quantitative densitometric analysis was done using ImageJ (NIH) and expressed as relative protein levels of TRPV4 bound to each spot.

rTRPV4 = rTRPV4 (Rattus norvegicus, UniProt Q9ERZ8); assay: In vitro interaction (overlay) assay LPC-TRPV4; type: binding; design: made in house; host or cells: HEK293 cells, surface proteins isolated with Pierce Cell Surface Isolation kit; settings: 200 pmol per spot
Chain of rTRPV4 (Q9ERZ8 whole entry): as the sequence (Q9ERZ8 whole entry R746D) above, with D746R counted along it
Protocol: as §1

Row | Compound | effect on LPA 18:1 (10 μM) induced Ca2+ signal (mouse keratinocytes) | effect on LPC (10 μM) induced Ca2+ signal (mouse keratinocytes) | average activation of currents, normalized to 1 μM GSK101 (hTRPV4-R746C) [%] | binding of LPC 18:1 to rTRPV4-R746D relative to rTRPV4 (rTRPV4-R746D) | binding of LPC 18:1 to rTRPV4-R746D relative to rTRPV4 (rTRPV4-R746D; listed as LPC (18:1)) | binding of LPC 18:1 to rTRPV4 (rTRPV4)
1 | Cc1c(C(=O)Nc2cccc(C(F)(F)F)c2)cc(-c2ccccc2)n1CCCN1CCOCC1 [HC067047] | remained unchanged | significantly reduced | – | – | – | –
2 | LPC 18:1 | – | – | 11±4 | significantly reduced binding | significant reduction of this interaction | demonstrated binding
